Data from patent publication US12440493B2, “Combination therapy for treating cancer comprising substituted piperazines” (Eli Lilly and Company, priority 2020, dated 2025).
“And” between values parts separate entries of the source, which are not always exact repeats. Equal entries are not always repeated.

Key:
[1] = tested on: IDH1(R132H) primary human AML cells; assay: AML cell differentiation in blood (flow cytometry, % hCD33+hCD11b+ of hCD45+ cells), human AML PDx models in NSG mice; assay type: in vivo; details: for AML cell differentiation (% hCD33 + hCD11b+ (of hCD45+ cells)): F: 50 mg/kg Midostaurin, QD, PO, one animal
Procedure: (§1) Compounds and Formulation. For in vivo studies, each test article is prepared at an appropriate concentration with vehicle. […] Compound A is prepared fresh at the appropriate concentrations with vehicle every 7 days and stored at 4° C. between doses. […] Cytarabine is prepared fresh weekly by dilution with sterile saline from stock solution of Cytarabine (injection 20 mg/mL, (Pfizer injectables')). Azacitidine (Sigma, Lot #MKBR7212) is formulated in sterile water and is prepared fresh daily immediately before dosing. In vivo human AML PDx models. […] Two models are used in the studies: […] As needed, splenocytes from tumor-bearing mice are used to propagate and expand the models, as described. Each test article is prepared as described above at an appropriate concentration with vehicle to give animals the doses tested in this study at a dosing volume of 10 μL/gram body weight. Mice receiving Compound A (PO, QD) are treated at the indicated doses for the duration of the study. The combination agents are dosed as follows: […] Treated mice are assessed in comparison to vehicle treated and naïve (non-tumor bearing) control mice. Body weight is recorded twice per week. […] AML PDx model propagation. […] Spleens are processed and splenocytes isolated as described below. Two hundred μL per subject of the splenocyte prep is injected IV (intravenous, tail vein) into recipient NSG mice. […] Once engraftment is confirmed, the mice are monitored biweekly until ready to be put on study. […] Submandibular blood is collected. Spleen/Splenocyte Processing and Prep. After excision, a spleen is weighed, and […] is placed in a standard sterile 15 mL polypropylene conical tube containing PBS, and placed on ice. […] The spleen is placed in ice cold sterile PBS in a 15 mL collection tube. The spleen is removed from the collection tube and placed in a 100 micron 50 mL conical tube cell strainer (BD Falcon #352360). The spleen is processed by gentle rubbing of the spleen tissue against the surface of the cell strainer with the end of a 5 mL syringe plunger in a circular motion. The surface of the strainer is rinsed with 10 mL room temperature sterile DPBS (HyClone SH30028) 3 times during the process. […] The cell pellet is collected by centrifugation (300×g) and washed three times with 30 mL sterile DPBS. The cells are counted and resuspended in DPBS at the desired implant concentration. Bone Marrow Collection. […] Flow cytometry analysis of human white cells. Submandibular blood samples from in vivo studies are collected. Fluor-conjugated antibody stains are added according to the manufacturer's instructions (anti-human CD33-PE (clone WM53, BD Cat #555450), anti-human CD14-APC (clone MφpP9, BD Cat #340436), anti-human CD15-V450 (clone HI98, BD Cat #561584), anti-human CD117-BV421 (clone YB5.B8, BD Cat #562434), anti-human […]7 (clone ICRF44, BD Cat #557754), anti-human […]7 (clone HI30, BD Cat #557748), and anti-human CD3-FITC (clone SK7, BD Cat #340542)). The samples are incubated for 30 minutes at room temperature, protected from light. After the incubation, 1.5 mL 1×BD Lyse/Fix (37° C., (BD #558049)) is added to each sample and incubated for 12 minutes at room temperature. The tubes are centrifuged at 300×g for 7 minutes. BD Lyse/Fix solution is aspirated and the cell pellet washed with stain/wash buffer 3 times (1 wash step consisted of: pellet resuspended in 3 mL stain/wash buffer, centrifuged at 300×g, aspirated wash). Fixed cells are then resuspended in 300 to 400 μL stain/wash buffer. Samples are analyzed on a Becton Dickinson FACSVerse Flow cytometer (Cat #651155 Serial #Z6511550447) using standard flow cytometry principles and techniques. Samples are analyzed on the same day as they are stained and fixed. Population gating and data analysis of percent population are performed in the FACSuite software on the FACSVerse cytometer. Percent population values from the data analysis are plotted in Graphpad Prism or in JMP13. […]

[2] = tested on: 2-HG production; assay: Plasma 2-HG inhibition (LC-MS metabolite analysis in plasma of AML PDx model); assay type: in vivo, human
[3] = tested on: IDH1(R132H) primary human AML cells; assay: AML clearance in peripheral blood (flow cytometry, % hCD33+hCD45+ of total white cells), human AML PDx models in NSG mice; assay type: in vivo; details: for AML clearance (% hCD33 + hCD45+ (of total white cells)): 50 mg/kg Midostaurin, QD, PO, each value one animal, 50 mg/kg; for % peripheral blood AML cells (treatment group value): group F: midostaurin (50 mg/kg)
Procedure: as §1

[4] = tested on: IDH1(R132H) primary human AML cells; assay: Bone marrow AML clearance (flow cytometry), human AML PDx models in NSG mice; assay type: in vivo
Procedure: as §1

[5] = plasma, F: 50 mg/kg Midostaurin, QD, PO, one line per animal
[6] = 50 mg/kg Midostaurin, QD, PO, each line one animal

CO[C@@H]1[C@H](N(C)C(=O)c2ccccc2)C[C@H]2O[C@]1(C)n1c3ccccc3c3c4c(c5c6ccccc6n2c5c31)C(=O)NC4 [Midostaurin, reference compound]
AML cell differentiation (% hCD33 + hCD11b+ (of hCD45+ cells)) ([1]; treatment day 7): 25.48% and 12.53% and 9% and 38.3% and 27.14% | AML cell differentiation (% hCD33 + hCD11b+ (of hCD45+ cells)) ([1]; treatment day 23): 25.27% and 17.13% and 9.1% and 36.3% and 25.56% | AML cell differentiation (% hCD33 + hCD11b+ (of hCD45+ cells)) ([1]; treatment day 36): 45.81% and 34.03% and 21.16% and 47.53% and 25.64% | AML cell differentiation (% hCD33 + hCD11b+ (of hCD45+ cells)) ([1]; treatment day 50): 43.86% and 28.75% and 20.78% and 40% and 30.3% | AML cell differentiation (% hCD33 + hCD11b+ (of hCD45+ cells)) ([1]; treatment day −8 (before treatment)): 19.58% and 13.81% and 18.12% and 19.57% | % AML cell differentiation (treatment group value) ([1]; day 50, group F: midostaurin (50 mg/kg), vehicle 28%): 33% | % plasma 2-HG (treatment group value) ([2]; group F: midostaurin (50 mg/kg), vehicle 100%): 70% | 2-HG [2, 5]: 14.919 µM and 11.402 µM and 7.494 µM and 21.55 µM and 10.075 µM | Naive Subtracted 2-HG [2, 5]: 12.51 µM and 8.993 µM and 5.085 µM and 19.141 µM and 7.666 µM | AML clearance (% hCD33 + hCD45+ (of total white cells)) ([3]; Treatment day 7): 10.05% and 3.62% and 8.05% and 11.35% and 2.53% | AML clearance (% hCD33 + hCD45+ (of total white cells)) ([3]; Treatment day 23): 6.24% and 3.75% and 7.09% and 2.63% and 0.84% | AML clearance (% hCD33 + hCD45+ (of total white cells)) ([3]; Treatment day 36): 3.7% and 1.83% and 4.68% and 2.15% and 0.28% | AML clearance (% hCD33 + hCD45+ (of total white cells)) ([3]; Treatment day 50): 2.21% and 0.76% and 3.72% and 1.29% and 0.21% | AML clearance (% hCD33 + hCD45+ (of total white cells)) ([3]; Treatment day 64): 7.01% and 2.16% and 3.93% and 4.84% and 0.18% | AML clearance (% hCD33 + hCD45+ (of total white cells)) ([3]; Treatment day 78): 18.03% and 2.94% and 8.24% and 14.27% and 0.14% | AML clearance (% hCD33 + hCD45+ (of total white cells)) ([3]; Treatment day 92): 35.38% and 4.09% and 14.55% and 30.48% and 0.86% | AML clearance (% hCD33 + hCD45+ (of total white cells)) ([3]; Treatment day −8): 7.94% and 8.17% and 6.23% and 2.27% | % peripheral blood AML cells (treatment group value) ([3]; day 50, vehicle 32%): 1.1% | % peripheral blood AML cells (treatment group value) ([3]; day 64, vehicle 67%): 2.2% | % peripheral blood AML cells (treatment group value) ([3]; day 78, vehicle 129%): 3.9% | Bone Marrow AML Clearance: % hCD33 + hCD45+ (% of white cells) [4, 6]: 51.84% and 6.3% and 22.34% and 59.24% and 25.84% | Bone Marrow AML Clearance: % hCD45+ (% of white cells) [4, 6]: 51.3% and 6.25% and 22.22% and 58.42% and 25.71% | % human AML cells in bone marrow (of white cells; lower = more clearance) ([4]; group F: midostaurin (50 mg/kg), vehicle 86%): 26%
